# From PMC9124820, “In vitro evaluation of fenfluramine and norfenfluramine as victims of drug interactions” (Pharmacology Research & Perspectives, 2022)
# Target: T1, rCYP1A2 (Homo sapiens, UniProt P05177)
# T1 construct: purchased Cypex, Ltd; host or cells: Escherichia coli
# T1 sequence (P05177 1-516): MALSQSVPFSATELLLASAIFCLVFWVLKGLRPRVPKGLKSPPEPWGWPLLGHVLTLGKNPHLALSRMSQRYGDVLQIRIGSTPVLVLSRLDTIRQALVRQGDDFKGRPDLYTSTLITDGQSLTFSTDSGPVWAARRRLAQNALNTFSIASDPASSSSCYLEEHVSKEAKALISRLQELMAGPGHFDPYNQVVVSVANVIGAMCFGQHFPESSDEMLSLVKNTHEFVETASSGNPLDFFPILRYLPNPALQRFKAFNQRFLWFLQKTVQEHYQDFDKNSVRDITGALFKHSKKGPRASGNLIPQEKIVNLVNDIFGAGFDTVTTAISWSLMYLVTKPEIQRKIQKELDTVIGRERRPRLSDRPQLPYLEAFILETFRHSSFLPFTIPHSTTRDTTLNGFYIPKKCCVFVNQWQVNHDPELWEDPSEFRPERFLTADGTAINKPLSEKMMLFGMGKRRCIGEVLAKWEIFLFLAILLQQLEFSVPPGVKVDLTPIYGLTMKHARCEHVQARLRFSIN
# Test: Reaction phenotyping with rCYP1A2
# Type: in vitro ADME
# Protocol: For FFA and nFFA reaction phenotyping experiments, LC‐MS/MS experiments were performed using an API 4000 QTRAP or QTRAP 5500 mass spectrometer (SCIEX) with positive electrospray ionization. Chromatography was performed using an Atlantis dC18 analytical column (100 × 2.1 mm, 5 µm; Waters Corporation). Mobile phases were 0.2% v/v formic acid in water and 0.2% v/v formic acid in methanol. FFA and nFFA were eluted at a flow rate of 0.5 mL/min with a linear gradient of 40%−95% methanol from 0.20−2.1 min. The mass transitions monitored were 232.0>109.0 for FFA, 204.0>159.0 for nFFA, 348.0>330.0 for 1’‐hydroxymidazolam‐d4 internal standard (FFA reaction phenotyping), and 262.0>244.0 for hydroxybupropion‐d6 internal standard (nFFA reaction phenotyping). Analyst Instrument Control and Data Processing software (v. 1.6.1) was used for collecting and integrating data (SCIEX). Calibration curves ranging from 1.25 µM−0.01 µM were used to quantify nFFA. Relative quantitation was used to approximate the amount of FFA test material used.
# Methods used to evaluate the role of CYP450s in the metabolism of FFA have been described.[22], [23], [24] […] Supernatant fractions were analyzed by LC‐MS/MS.
smiles,measurement,setting,value
"CCNC(C)Cc1cccc(C(F)(F)F)c1 (racemic) [FFA, (RS)‐ethyl (α‐methyl‐3‐trifluoromethylphenethyl)amine]",Disappearance of FFA,"1 μM FFA, 25 pmol rCYP1A2, 60 min",23%
same,FFA loss,"10 μM FFA, rCYP1A2, 60 min",22%
